Assay results as given in ChEMBL document CHEMBL5724914, “Linking interpersonal differences in gut microbiota composition and drug biotransformation activity” (2024).

Experiments:
[1] = human gut metagenome, 24 h, 2 µM
[2] = human gut metagenome, 24 h, 2 µM; remark: listed apart in the source
[3] = The drug is tested on WLS-370 corresponding to human gut metagenome with ENA study accession number: PRJEB37062 and ENA sample accession number: ERS12561793 for biotransformation under anaerobic condition. The drug concentrations were measured over 9 timepoints collected between 0 and 24 hours of incubation by liquid-chromatography-coupled mass spectrometry (LC–MS); conditions: 2 µM
[4] = human gut metagenome, 24 h, 2 µM; remark: listed apart in the source
[5] = human gut metagenome, 24 h, 2 µM; remark: listed apart in the source
[6] = human gut metagenome, 24 h, 2 µM; remark: listed apart in the source
[7] = human gut metagenome, 24 h, 2 µM; remark: listed apart in the source
[8] = The drug is tested on Z-029 corresponding to rat gut metagenome with ENA study accession number: PRJEB37062 and ENA sample accession number: ERS12561828 for biotransformation under anaerobic condition. The drug concentrations were measured over 9 timepoints collected between 0 and 24 hours of incubation by liquid-chromatography-coupled mass spectrometry (LC–MS); conditions: 2 µM
[9] = The drug is tested on WLS-086 corresponding to human gut metagenome with ENA study accession number: PRJEB37062 and ENA sample accession number: ERS12561752 for biotransformation under anaerobic condition. The drug concentrations were measured over 9 timepoints collected between 0 and 24 hours of incubation by liquid-chromatography-coupled mass spectrometry (LC–MS); conditions: 2 µM
[10] = human gut metagenome, 24 h, 2 µM; remark: listed apart in the source
[11] = The drug is tested on Z-030 corresponding to mouse gut metagenome with ENA study accession number: PRJEB37062 and ENA sample accession number: ERS12561829 for biotransformation under anaerobic condition. The drug concentrations were measured over 9 timepoints collected between 0 and 24 hours of incubation by liquid-chromatography-coupled mass spectrometry (LC–MS); conditions: 2 µM
[12] = The drug is tested on Z-009 corresponding to pig gut metagenome with ENA study accession number: PRJEB37062 and ENA sample accession number: ERS12561809 for biotransformation under anaerobic condition. The drug concentrations were measured over 9 timepoints collected between 0 and 24 hours of incubation by liquid-chromatography-coupled mass spectrometry (LC–MS); conditions: 2 µM
[13] = human gut metagenome, 24 h, 2 µM; remark: listed apart in the source
[14] = human gut metagenome, 24 h, 2 µM; remark: listed apart in the source
[15] = The drug is tested on WLS-090 corresponding to human gut metagenome with ENA study accession number: PRJEB37062 and ENA sample accession number: ERS12561753 for biotransformation under anaerobic condition. The drug concentrations were measured over 9 timepoints collected between 0 and 24 hours of incubation by liquid-chromatography-coupled mass spectrometry (LC–MS); conditions: 2 µM
[16] = human gut metagenome, 24 h, 2 µM; remark: listed apart in the source
[17] = The drug is tested on Z-004 corresponding to metagenome with ENA study accession number: PRJEB37062 and ENA sample accession number: ERS12561804 for biotransformation under anaerobic condition. The drug concentrations were measured over 9 timepoints collected between 0 and 24 hours of incubation by liquid-chromatography-coupled mass spectrometry (LC–MS); conditions: 2 µM
[18] = The drug is tested on Z-011 corresponding to mouse gut metagenome with ENA study accession number: PRJEB37062 and ENA sample accession number: ERS12561811 for biotransformation under anaerobic condition. The drug concentrations were measured over 9 timepoints collected between 0 and 24 hours of incubation by liquid-chromatography-coupled mass spectrometry (LC–MS); conditions: 2 µM
[19] = The drug is tested on Z-023 corresponding to metagenome with ENA study accession number: PRJEB37062 and ENA sample accession number: ERS12561822 for biotransformation under anaerobic condition. The drug concentrations were measured over 9 timepoints collected between 0 and 24 hours of incubation by liquid-chromatography-coupled mass spectrometry (LC–MS); conditions: 2 µM
[20] = human gut metagenome, 24 h, 2 µM; remark: listed apart in the source
Further: call rule not given here.

For `CN1CCc2cccc3c2[C@H]1Cc1ccc(O)c(O)c1-3` [APOMORPHINE], the “Bacterial Biotransformation” value [1] was “Compound NOT metabolized”, the “Bacterial Biotransformation” value [2] was “Compound NOT metabolized” and the “Bacterial Biotransformation” value [3] was “Compound NOT metabolized”. For the same molecule, the “Bacterial Biotransformation” value [4] was “Compound NOT metabolized”, the “Bacterial Biotransformation” value [5] was “Compound NOT metabolized” and the “Bacterial Biotransformation” value [6] was “Compound NOT metabolized”. For the same molecule, the “Bacterial Biotransformation” value [7] was “Compound NOT metabolized”, the “Bacterial Biotransformation” value [8] was “Compound NOT metabolized” and the “Bacterial Biotransformation” value [9] was “Compound NOT metabolized”. For the same molecule, the “Bacterial Biotransformation” value [10] was “Compound NOT metabolized”, the “Bacterial Biotransformation” value [11] was “Compound NOT metabolized” and the “Bacterial Biotransformation” value [12] was “Compound metabolized”. The “Bacterial Biotransformation” value [13] was “Compound NOT metabolized”, the “Bacterial Biotransformation” value [14] was “Compound NOT metabolized” and the “Bacterial Biotransformation” value [15] was “Compound NOT metabolized”. The “Bacterial Biotransformation” value [16] was “Compound NOT metabolized”.

For `CCN(CC)C(=O)/C(C#N)=C/c1cc(O)c(O)c([N+](=O)[O-])c1` [ENTACAPONE], the “Bacterial Biotransformation” value [17] was “Compound metabolized”, the “Bacterial Biotransformation” value [18] was “Compound metabolized” and the “Bacterial Biotransformation” value [8] was “Compound metabolized”. The “Bacterial Biotransformation” value [19] was “Compound metabolized”, the “Bacterial Biotransformation” value [11] was “Compound metabolized” and the “Bacterial Biotransformation” value [12] was “Compound metabolized”. The “Bacterial Biotransformation” value [16] was “Compound NOT metabolized”.

In the case of `CC[C@H](C)C(=O)O[C@H]1C[C@@H](C)C=C2C=C[C@H](C)[C@H](CC[C@@H]3C[C@@H](O)CC(=O)O3)[C@H]21` [LOVASTATIN], the “Bacterial Biotransformation” value [1] is reported as “Compound NOT metabolized”, the “Bacterial Biotransformation” value [2] is reported as “Compound NOT metabolized” and the “Bacterial Biotransformation” value [3] is reported as “Compound NOT metabolized”. The “Bacterial Biotransformation” value [4] was “Compound NOT metabolized”, the “Bacterial Biotransformation” value [17] was “Compound NOT metabolized” and the “Bacterial Biotransformation” value [18] was “Compound metabolized”. The “Bacterial Biotransformation” value [5] was “Compound NOT metabolized”, the “Bacterial Biotransformation” value [6] was “Compound NOT metabolized” and the “Bacterial Biotransformation” value [7] was “Compound NOT metabolized”. For the same molecule, the “Bacterial Biotransformation” value [8] was “Compound NOT metabolized”, the “Bacterial Biotransformation” value [19] was “Compound metabolized” and the “Bacterial Biotransformation” value [9] was “Compound NOT metabolized”. For the same molecule, the “Bacterial Biotransformation” value [10] was “Compound NOT metabolized”, the “Bacterial Biotransformation” value [11] was “Compound metabolized” and the “Bacterial Biotransformation” value [12] was “Compound NOT metabolized”. The “Bacterial Biotransformation” value [13] was “Compound NOT metabolized”, the “Bacterial Biotransformation” value [14] was “Compound metabolized” and the “Bacterial Biotransformation” value [15] was “Compound NOT metabolized”. The “Bacterial Biotransformation” value [16] was “Compound NOT metabolized”.

In the case of `COc1c2occc2cc2ccc(=O)oc12` [METHOXSALEN], the “Bacterial Biotransformation” value [1] is reported as “Compound metabolized”, the “Bacterial Biotransformation” value [2] is reported as “Compound metabolized” and the “Bacterial Biotransformation” value [3] is reported as “Compound metabolized”. The “Bacterial Biotransformation” value [4] was “Compound NOT metabolized”, the “Bacterial Biotransformation” value [17] was “Compound metabolized” and the “Bacterial Biotransformation” value [18] was “Compound NOT metabolized”. The “Bacterial Biotransformation” value [5] was “Compound metabolized”, the “Bacterial Biotransformation” value [6] was “Compound metabolized” and the “Bacterial Biotransformation” value [7] was “Compound metabolized”. The “Bacterial Biotransformation” value [8] was “Compound NOT metabolized”, the “Bacterial Biotransformation” value [19] was “Compound metabolized” and the “Bacterial Biotransformation” value [9] was “Compound metabolized”. The “Bacterial Biotransformation” value [20] was “Compound metabolized”, the “Bacterial Biotransformation” value [10] was “Compound metabolized” and the “Bacterial Biotransformation” value [11] was “Compound NOT metabolized”. For the same molecule, the “Bacterial Biotransformation” value [12] was “Compound metabolized”, the “Bacterial Biotransformation” value [14] was “Compound metabolized” and the “Bacterial Biotransformation” value [15] was “Compound metabolized”. The “Bacterial Biotransformation” value [16] was “Compound metabolized”.

With `Cc1nc2n(c(=O)c1CCN1CCC(c3noc4cc(F)ccc34)CC1)CCCC2` [RISPERIDONE] the “Bacterial Biotransformation” value [2] was “Compound metabolized”, the “Bacterial Biotransformation” value [3] was “Compound metabolized” and the “Bacterial Biotransformation” value [4] was “Compound metabolized”. For the same molecule, the “Bacterial Biotransformation” value [17] was “Compound metabolized”, the “Bacterial Biotransformation” value [18] was “Compound metabolized” and the “Bacterial Biotransformation” value [5] was “Compound metabolized”. For the same molecule, the “Bacterial Biotransformation” value [6] was “Compound metabolized”, the “Bacterial Biotransformation” value [7] was “Compound metabolized” and the “Bacterial Biotransformation” value [8] was “Compound NOT metabolized”. The “Bacterial Biotransformation” value [19] was “Compound metabolized”, the “Bacterial Biotransformation” value [9] was “Compound metabolized” and the “Bacterial Biotransformation” value [20] was “Compound metabolized”. For the same molecule, the “Bacterial Biotransformation” value [10] was “Compound metabolized”, the “Bacterial Biotransformation” value [11] was “Compound NOT metabolized” and the “Bacterial Biotransformation” value [12] was “Compound metabolized”. For the same molecule, the “Bacterial Biotransformation” value [13] was “Compound metabolized”, the “Bacterial Biotransformation” value [14] was “Compound metabolized” and the “Bacterial Biotransformation” value [15] was “Compound metabolized”. The “Bacterial Biotransformation” value [16] was “Compound metabolized”.

For `CN(C)CCc1c[nH]c2ccc(Cn3cncn3)cc12.O=C(O)c1ccccc1` [RIZATRIPTAN BENZOATE], the “Bacterial Biotransformation” value [1] was “Compound NOT metabolized”, the “Bacterial Biotransformation” value [2] was “Compound NOT metabolized” and the “Bacterial Biotransformation” value [3] was “Compound NOT metabolized”. For the same molecule, the “Bacterial Biotransformation” value [4] was “Compound NOT metabolized”, the “Bacterial Biotransformation” value [17] was “Compound NOT metabolized” and the “Bacterial Biotransformation” value [18] was “Compound NOT metabolized”. The “Bacterial Biotransformation” value [5] was “Compound NOT metabolized”, the “Bacterial Biotransformation” value [7] was “Compound NOT metabolized” and the “Bacterial Biotransformation” value [8] was “Compound NOT metabolized”. The “Bacterial Biotransformation” value [19] was “Compound NOT metabolized”, the “Bacterial Biotransformation” value [9] was “Compound NOT metabolized” and the “Bacterial Biotransformation” value [20] was “Compound NOT metabolized”. The “Bacterial Biotransformation” value [10] was “Compound NOT metabolized”, the “Bacterial Biotransformation” value [11] was “Compound NOT metabolized” and the “Bacterial Biotransformation” value [12] was “Compound NOT metabolized”. The “Bacterial Biotransformation” value [13] was “Compound NOT metabolized”, the “Bacterial Biotransformation” value [14] was “Compound NOT metabolized” and the “Bacterial Biotransformation” value [15] was “Compound NOT metabolized”. For the same molecule, the “Bacterial Biotransformation” value [16] was “Compound NOT metabolized”.

For `COc1ccc2[nH]c([S+]([O-])Cc3ncc(C)c(OC)c3C)nc2n1` (configuration not stated) [TENATOPRAZOLE], the “Bacterial Biotransformation” value [1] was “Compound metabolized”, the “Bacterial Biotransformation” value [2] was “Compound metabolized” and the “Bacterial Biotransformation” value [3] was “Compound metabolized”. The “Bacterial Biotransformation” value [4] was “Compound NOT metabolized”, the “Bacterial Biotransformation” value [17] was “Compound metabolized” and the “Bacterial Biotransformation” value [18] was “Compound metabolized”. The “Bacterial Biotransformation” value [5] was “Compound NOT metabolized”, the “Bacterial Biotransformation” value [6] was “Compound metabolized” and the “Bacterial Biotransformation” value [8] was “Compound metabolized”. For the same molecule, the “Bacterial Biotransformation” value [19] was “Compound NOT metabolized”, the “Bacterial Biotransformation” value [9] was “Compound metabolized” and the “Bacterial Biotransformation” value [20] was “Compound metabolized”. For the same molecule, the “Bacterial Biotransformation” value [10] was “Compound NOT metabolized”, the “Bacterial Biotransformation” value [11] was “Compound metabolized” and the “Bacterial Biotransformation” value [12] was “Compound metabolized”. For the same molecule, the “Bacterial Biotransformation” value [13] was “Compound metabolized”, the “Bacterial Biotransformation” value [14] was “Compound metabolized” and the “Bacterial Biotransformation” value [16] was “Compound metabolized”.
